Experimental findings from patent US20100173885A1, “ORGANOMETEALLIC COMPOUNDS” (priority 2007, published 2010) are described below.

Series [1] is described as follows: Fluorescence quantum yield of photosensitizers. It counts as physicochemical. Conditions: in MeOH at 648 nm after 410 nm excitation. The procedure:
The UV-visible absorption spectra were recorded on an Uvikon 930 spectrophotometer and fluorescence spectra on a Perkin-Elmer LS50 spectrofluorometer.

The next series deals with RAW macrophages. The experiment in a line: Phototoxicity in RAW macrophages, irradiation at 652 nm, MTT test. It counts as cell-based. Conditions: RAW cells, 10 μM, 20 mW/cm^2, MTT 24 h after irradiation. The procedure:
RAW cells were grown in 96-well cell culture plates (Corning, N.Y.) until 75% confluent in DMEM medium containing 10% FCS. The culture media were replaced with fresh medium containing the Ru, Os or Rh-porphyrin analogs at 10 μM (minimal dark cytotoxicity) and the cells were exposed overnight to the compounds. Then, the media were replaced with DMEM without phenol red containing 10% FCS and cells were irradiated at 652 nm using a diode laser (Applied Optronics, South Plainfield, N.J.) coupled to a frontal diffuser (Medlight SA, Ecublens, Switzerland), at an irradiance of 20 mW/cm^2. Experiments were performed in triplicate wells. Cell viability was evaluated 24 h later using the MTT test. Briefly, 3-(4,5-dimethyl-2-thiazoyl)-2,5-diphenyltetrazolium bromide (MTT, Merck) was added at 250 μg/mL and incubation was continued for 2 h, then the cell culture supernatants were removed. The cell layers were dissolved in iPrOH/0.04N HCl and the absorbance measured at 540 nm in a multiwell-plate reader (iEMS Reader MF, Labsystems, Bioconcept, Switzerland) and compared to the values of control cells incubated with the nanoparticles but without laser irradiation.

For `C1=Cc2nc1c(-c1ccncc1)c1ccc([nH]1)c(-c1ccncc1)c1nc(c(-c3ccncc3)c3ccc([nH]3)c2-c2ccncc2)C=C1` [TPP, 5,10,15,20-tetra(4-pyridyl)porphyrin, reference compound], in series [1], the “fluorescence quantum yield φf” value turned out to be 10.4%.

In the case of [Ir4(η^5-Cp*)4(TPP)Cl8] [Compound 8], the “fluorescence quantum yield φf” value in series [1] was found to be 4.5%.

As for “[OS4(η^6-p-Pr^iC6H4Me)4(TPP)Cl8] [Compound 6]”, the “fluorescence quantum yield φf” value in series [1] is listed as 7.0%.

Turning to [Ru4(η^6-C6H6)4(TPP)Cl8] [Compound 1], in series [1], the “fluorescence quantum yield φf” value is on record as 6.1%. Also, in the series with RAW macrophages, the “photosensitivity (photosensitizer ranking)” value is given as “best photosensitizers amongst the Ru-porphyrin compounds”.

For the molecule “[Ru4(η^6-1,4-C6H4(COOEt)2)4(TPP)Cl8] [Compound 5]”, the “fluorescence quantum yield φf” value in series [1] turned out to be 7.2%.

In the case of [Ru4(η^6-C6Me6)4(TPP)Cl8] [Compound 4], the “fluorescence quantum yield φf” value in series [1] is listed as 7.3%.

“[Ru4(η^6-C6H5CH3)4(TPP)Cl8] [Compound 2]”: the “fluorescence quantum yield φf” value in series [1] came to 7.4%. The “photosensitivity (photosensitizer ranking)” value in the series on RAW macrophages is “best photosensitizers amongst the Ru-porphyrin compounds”.

On to [Rh4(η^5-Cp*)4(TPP)Cl8] [Compound 7], for which the “fluorescence quantum yield φf” value in series [1] turned out to be 7.9%.

Take “[Ru4(η^6-p-Pr^iC6H4Me)4(TPP)Cl8] [Compound 3]”: the “fluorescence quantum yield φf” value in series [1] is 7.9%.
